Data as given in the NIST ThermoML archive (doi:10.1021/je700542v).
“And” between values parts separate entries of the source, which are not always exact repeats. Equal values may be shown once. ± gives the expanded uncertainty stated by the source.

Conditions: Crystal

[Ag+].[F-] [silver fluoride]
Conditions | vapor or sublimation pressure
880 K | 5.754e-05 ± 5.8e-06 kPa
891 K | 5.248e-05 ± 5.3e-06 kPa
894 K | 7.763e-05 ± 7.8e-06 kPa
897 K | 7.763e-05 ± 7.8e-06 kPa
904 K | 8.318e-05 ± 8.3e-06 kPa
910 K | 0.0001549 ± 1.6e-05 kPa and 9.772e-05 ± 9.8e-06 kPa and 0.0001047 ± 1e-05 kPa
912 K | 0.0001047 ± 1e-05 kPa
913 K | 0.0001349 ± 1.4e-05 kPa
914 K | 0.0001549 ± 1.6e-05 kPa
917 K | 0.0001549 ± 1.6e-05 kPa
920 K | 0.0002291 ± 2.3e-05 kPa and 0.0001549 ± 1.6e-05 kPa and 0.000166 ± 1.7e-05 kPa
921 K | 0.0001738 ± 1.7e-05 kPa
925 K | 0.000166 ± 1.7e-05 kPa
928 K | 0.0002344 ± 2.3e-05 kPa
929 K | 0.000195 ± 2e-05 kPa and 0.0002089 ± 2.1e-05 kPa
931 K | 0.0001738 ± 1.7e-05 kPa and 0.0002512 ± 2.5e-05 kPa
933 K | 0.0002089 ± 2.1e-05 kPa
936 K | 0.0002692 ± 2.7e-05 kPa
938 K | 0.0002692 ± 2.7e-05 kPa
939 K | 0.0003715 ± 3.7e-05 kPa
941 K | 0.0002399 ± 2.4e-05 kPa
942 K | 0.0002692 ± 2.7e-05 kPa
947 K | 0.0004074 ± 4.1e-05 kPa
948 K | 0.000309 ± 3.1e-05 kPa and 0.0004266 ± 4.3e-05 kPa
949 K | 0.0005248 ± 5.3e-05 kPa and 0.0003467 ± 3.5e-05 kPa and 0.0003715 ± 3.7e-05 kPa
955 K | 0.0003715 ± 3.7e-05 kPa
956 K | 0.0004266 ± 4.3e-05 kPa
958 K | 0.0005012 ± 5e-05 kPa and 0.0004677 ± 4.7e-05 kPa
965 K | 0.000537 ± 5.4e-05 kPa and 0.0005012 ± 5e-05 kPa
966 K | 0.0006918 ± 6.9e-05 kPa
967 K | 0.0006761 ± 6.8e-05 kPa
968 K | 0.0008913 ± 8.9e-05 kPa
974 K | 0.0006456 ± 6.5e-05 kPa
975 K | 0.0006761 ± 6.8e-05 kPa
977 K | 0.0007244 ± 7.2e-05 kPa and 0.0007763 ± 7.8e-05 kPa
978 K | 0.0008511 ± 8.5e-05 kPa
979 K | 0.0008913 ± 8.9e-05 kPa
984 K | 0.001047 ± 0.00021 kPa
985 K | 0.000871 ± 8.7e-05 kPa and 0.000912 ± 9.1e-05 kPa and 0.0009772 ± 9.8e-05 kPa
986 K | 0.001445 ± 0.00031 kPa
987 K | 0.0008913 ± 8.9e-05 kPa
990 K | 0.001175 ± 0.00024 kPa
994 K | 0.001097 ± 0.00022 kPa and 0.001175 ± 0.00024 kPa
995 K | 0.001698 ± 0.00038 kPa
996 K | 0.001349 ± 0.00029 kPa and 0.001071 ± 0.00022 kPa
1000 K | 0.001479 ± 0.00032 kPa and 0.001585 ± 0.00035 kPa
1004 K | 0.001445 ± 0.00031 kPa
1005 K | 0.00123 ± 0.00026 kPa
1008 K | 0.002239 ± 0.00053 kPa
1010 K | 0.001862 ± 0.00042 kPa
1012 K | 0.00166 ± 0.00037 kPa and 0.001778 ± 0.0004 kPa
1013 K | 0.001995 ± 0.00046 kPa and 0.001412 ± 0.0003 kPa
1014 K | 0.001738 ± 0.00039 kPa
1017 K | 0.00263 ± 0.00064 kPa
1019 K | 0.002399 ± 0.00057 kPa
1022 K | 0.002089 ± 0.00048 kPa and 0.002239 ± 0.00053 kPa
1025 K | 0.002344 ± 0.00056 kPa
1026 K | 0.001995 ± 0.00046 kPa
1031 K | 0.002455 ± 0.00059 kPa and 0.00263 ± 0.00064 kPa
1034 K | 0.00257 ± 0.00062 kPa
1036 K | 0.003311 ± 0.00083 kPa
1037 K | 0.003548 ± 0.0009 kPa
1040 K | 0.00309 ± 0.00077 kPa and 0.003311 ± 0.00083 kPa
1049 K | 0.003715 ± 0.00095 kPa and 0.003981 ± 0.001 kPa
1057 K | 0.004467 ± 0.0012 kPa and 0.004786 ± 0.0013 kPa

[Cu+2].[F-].[F-] [copper difluoride]
Conditions | vapor or sublimation pressure
881 K | 2.188e-05 ± 2.2e-06 kPa
886 K | 2.951e-05 ± 3e-06 kPa
895 K | 4.365e-05 ± 4.4e-06 kPa
896 K | 3.715e-05 ± 3.7e-06 kPa and 4.365e-05 ± 4.4e-06 kPa
897 K | 4.365e-05 ± 4.4e-06 kPa
900 K | 4.365e-05 ± 4.4e-06 kPa
901 K | 5.129e-05 ± 5.1e-06 kPa
902 K | 5.129e-05 ± 5.1e-06 kPa
903 K | 5.888e-05 ± 5.9e-06 kPa
906 K | 5.888e-05 ± 5.9e-06 kPa
908 K | 5.888e-05 ± 5.9e-06 kPa
909 K | 8.128e-05 ± 8.1e-06 kPa
911 K | 6.607e-05 ± 6.6e-06 kPa
912 K | 8.912e-05 ± 8.9e-06 kPa
913 K | 7.413e-05 ± 7.4e-06 kPa
914 K | 8.128e-05 ± 8.2e-06 kPa
915 K | 8.912e-05 ± 8.9e-06 kPa and 7.413e-05 ± 7.4e-06 kPa
918 K | 7.413e-05 ± 7.4e-06 kPa
919 K | 0.0001023 ± 1e-05 kPa
921 K | 0.0001175 ± 1.2e-05 kPa
922 K | 0.0001023 ± 1e-05 kPa and 9.55e-05 ± 9.6e-06 kPa
924 K | 0.0001175 ± 1.2e-05 kPa
925 K | 0.0001096 ± 1.1e-05 kPa
928 K | 0.0001175 ± 1.2e-05 kPa
929 K | 0.0001318 ± 1.3e-05 kPa
930 K | 0.0001318 ± 1.3e-05 kPa and 0.0001479 ± 1.5e-05 kPa and 0.0001622 ± 1.6e-05 kPa
931 K | 0.0001096 ± 1.1e-05 kPa
932 K | 0.0001622 ± 1.6e-05 kPa
934 K | 0.0001479 ± 1.5e-05 kPa
939 K | 0.0001905 ± 1.9e-05 kPa and 0.0001778 ± 1.8e-05 kPa
940 K | 0.0001905 ± 1.9e-05 kPa and 0.0002188 ± 2.2e-05 kPa
941 K | 0.0001778 ± 1.8e-05 kPa
942 K | 0.0002042 ± 2e-05 kPa
943 K | 0.0002042 ± 2e-05 kPa
944 K | 0.0001905 ± 1.9e-05 kPa
948 K | 0.0002512 ± 2.5e-05 kPa and 0.0002344 ± 2.3e-05 kPa
949 K | 0.0002512 ± 2.5e-05 kPa
950 K | 0.000309 ± 3.1e-05 kPa
952 K | 0.0002818 ± 2.8e-05 kPa and 0.000263 ± 2.6e-05 kPa
953 K | 0.0002818 ± 2.8e-05 kPa
955 K | 0.000309 ± 3.1e-05 kPa
956 K | 0.0002951 ± 3e-05 kPa and 0.0002818 ± 2.8e-05 kPa
959 K | 0.0003715 ± 3.7e-05 kPa and 0.0003548 ± 3.6e-05 kPa
960 K | 0.0003802 ± 3.8e-05 kPa
961 K | 0.0004365 ± 4.4e-05 kPa
964 K | 0.0004266 ± 4.3e-05 kPa
965 K | 0.0003802 ± 3.8e-05 kPa and 0.0004074 ± 4.1e-05 kPa
969 K | 0.0005012 ± 5e-05 kPa [middle of 4 runs]
970 K | 0.0005888 ± 5.9e-05 kPa
973 K | 0.0005495 ± 5.5e-05 kPa and 0.0005129 ± 5.1e-05 kPa
974 K | 0.0005129 ± 5.1e-05 kPa
976 K | 0.0006166 ± 6.2e-05 kPa
978 K | 0.0006607 ± 6.6e-05 kPa
979 K | 0.0006607 ± 6.6e-05 kPa and 0.0007413 ± 7.4e-05 kPa
982 K | 0.0006607 ± 6.6e-05 kPa
983 K | 0.0007413 ± 7.4e-05 kPa
984 K | 0.0006761 ± 6.8e-05 kPa
986 K | 0.0008128 ± 8.1e-05 kPa and 0.0008318 ± 8.3e-05 kPa
988 K | 0.0008318 ± 8.3e-05 kPa
989 K | 0.0007943 ± 7.9e-05 kPa
990 K | 0.0008511 ± 8.5e-05 kPa
992 K | 0.0009772 ± 9.8e-05 kPa
993 K | 0.001023 ± 0.00021 kPa
996 K | 0.001122 ± 0.00023 kPa and 0.001097 ± 0.00022 kPa
998 K | 0.001122 ± 0.00023 kPa and 0.001023 ± 0.00021 kPa
999 K | 0.001097 ± 0.00022 kPa
1002 K | 0.001288 ± 0.00027 kPa
1003 K | 0.00123 ± 0.00026 kPa
1005 K | 0.001445 ± 0.00031 kPa and 0.001412 ± 0.0003 kPa
1006 K | 0.001412 ± 0.0003 kPa
1007 K | 0.001349 ± 0.00029 kPa
1008 K | 0.001445 ± 0.00031 kPa
1011 K | 0.001698 ± 0.00038 kPa
1013 K | 0.00182 ± 0.00041 kPa
1014 K | 0.001862 ± 0.00042 kPa
1015 K | 0.001906 ± 0.00043 kPa and 0.001778 ± 0.0004 kPa
1016 K | 0.001738 ± 0.00039 kPa
1020 K | 0.002188 ± 0.00051 kPa and 0.001995 ± 0.00046 kPa
1023 K | 0.002455 ± 0.00059 kPa
1024 K | 0.002455 ± 0.00059 kPa
1025 K | 0.00257 ± 0.00062 kPa and 0.002455 ± 0.00059 kPa and 0.002239 ± 0.00053 kPa
1030 K | 0.00263 ± 0.00064 kPa
1032 K | 0.00309 ± 0.00077 kPa
1033 K | 0.003162 ± 0.00079 kPa
1051 K | 0.005129 ± 0.0014 kPa
